# Test results taken from paper PMC1448180, “Small-molecule and mutational analysis of allosteric Eg5 inhibition by monastrol” (BMC Chemical Biology, 2006).
# Where a chain is given by its changes, count along the chain named.
# Tests used:
# Klp61F-364H = target: T1, Klp61F-364H (Drosophila melanogaster, UniProt P46863); test: ATP hydrolysis by Klp-61F motor domain (NADH-enzyme coupled assay); type: biochemical, D. melanogaster
# T1 construct: His6 (C); made in house; host or cells: vector pRSETa
# T1 sequence (P46863 1-364): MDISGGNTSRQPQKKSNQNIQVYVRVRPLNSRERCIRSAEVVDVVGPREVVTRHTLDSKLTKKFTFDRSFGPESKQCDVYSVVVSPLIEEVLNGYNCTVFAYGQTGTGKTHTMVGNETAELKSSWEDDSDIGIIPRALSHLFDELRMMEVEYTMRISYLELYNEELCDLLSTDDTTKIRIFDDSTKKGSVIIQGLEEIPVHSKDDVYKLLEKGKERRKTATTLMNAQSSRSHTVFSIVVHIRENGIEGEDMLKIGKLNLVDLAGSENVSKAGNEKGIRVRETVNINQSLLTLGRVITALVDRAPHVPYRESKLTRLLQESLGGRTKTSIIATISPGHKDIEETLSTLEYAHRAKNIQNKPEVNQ
# Experimental: Each data point is the average of three independent experiments.
# (§1) ATP hydrolysis by recombinantly expressed kinesin motor domains was measured using an NADH-enzyme coupled assay. ATP hydrolysis was measured in KC25 buffer supplemented with 5 μM taxol, 1 mM ATP-KOH (pH 7.0), the appropriate concentration of motor domain, and the appropriate concentrations of taxol-polymerized microtubules.
# hEg5-367H (R119L) = target: T2, hEg5-367H (R119L) (Homo sapiens, UniProt P52732, R119L); test: ATP hydrolysis by Eg5 motor domain mutant R119L; type: biochemical; settings: Figure 4B; legend: basal ATP hydrolysis; read-out: IC50(μM) of monastrol, (R119L)
# T2 sequence (P52732 1-367 R119L): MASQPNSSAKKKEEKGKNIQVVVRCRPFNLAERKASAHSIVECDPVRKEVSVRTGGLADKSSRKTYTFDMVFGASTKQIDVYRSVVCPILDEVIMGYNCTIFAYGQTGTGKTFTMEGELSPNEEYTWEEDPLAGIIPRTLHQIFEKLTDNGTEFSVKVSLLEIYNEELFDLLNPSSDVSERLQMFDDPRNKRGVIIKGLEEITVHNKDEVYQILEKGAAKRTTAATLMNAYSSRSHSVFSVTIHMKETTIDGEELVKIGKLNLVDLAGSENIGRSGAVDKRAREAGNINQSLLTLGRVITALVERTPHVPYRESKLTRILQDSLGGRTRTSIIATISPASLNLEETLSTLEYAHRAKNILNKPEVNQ
# Source text: (§2) Figure 4 Mutagenesis of the monastrol binding site in human Eg5. (A) Design of mutations in the human Eg5 motor domain. Amino acid side chains that are not conserved between Eg5 and conventional kinesin were targeted, either introducing chimeric or rationally designed mutations (asterix for targeted point mutants) to test the contribution of residues to the drug-sensitivity of Eg5. (B) Steady-state enzymatic parameters for engineered human Eg5 motor domain mutants. Steady-state ATP hydrolysis by Eg5 was measured using an NADH-enzyme coupled assay varying the concentration of ATP, microtubules, or monastrol to obtain the microtubule concentration for half-maximal stimulation (K0.5MT), the maximal rate of microtubule-stimulated ATP hydrolysis (kcat), and the concentration of monastrol that inhibits basal ATP hydrolysis by 50 % (IC50), as described.
# (§3) We used a modified PCR mutagenesis protocol to introduce mutations into hEg5-367H, a plasmid encoding the C-terminally His6-tagged motor domain (amino acid residues 1–367) of human Eg5. […]
# as §1
# hEg5-367H (Y211M) = target: T3, hEg5-367H (Y211M) (Homo sapiens, UniProt P52732, Y211M); test: ATP hydrolysis by Eg5 motor domain mutant Y211M; type: biochemical; settings: Figure 4B; legend: basal ATP hydrolysis; read-out: IC50(μM) of monastrol, (Y211M)
# T3 sequence (P52732 1-367 Y211M): T2 sequence (P52732 1-367 R119L) with L119R, Y211M
# Source text: as §2, §3, §1
# AB9 cells = test: Spindle phenotype of D. rerio cells treated with monastrol; type: cell-based; settings: data not shown
# Source text: (§4) Monastrol binds a hydrophobic pocket between loop 5 and α3 that is poorly conserved among kinesins, resulting in specificity for vertebrate Eg5 homologs. […] Monastrol is known to inhibit human and Xenopus Eg5 [7, 9], but not BimC [27]. To test its effect on D. rerio Eg5 and Klp-61F, we treated AB9 and KC167 cells with monastrol. […] To obtain unambiguous evidence, we cloned the motor domain of Klp-61F and subjected the recombinant protein to ATPase assays in the presence or absence of microtubules.
# (§5) Conditions for growing the following cell lines are as described: D. rerio AB9 (37), D. melanogaster KC167 [38], and BS-C-1 green monkey kidney cells. For immunofluorescence microscopy, cells were grown on 12 mm circular coverslips to 30 % confluence, treated medium supplemented with drug and 0.2% DMSO, or a DMSO alone, for 6 hours, fixed with formaldehyde, and stained for DNA and microtubules, as described. D. melanogaster KC167 cells were cultured in Schneider's Drosophila Medium (GIBCO) whereas D. rerio AB9 cells and BS-C-1 green monkey kidney cells were cultured at 37°C in Dulbecco's Minimal medium in the presence of 10 % heat inactivated fetal calf serum.
# KC167 cells = test: Spindle phenotype of Drosophila cells treated with monastrol; type: cell-based, D. melanogaster; settings: data not shown
# Source text: as §4, §5
# human Eg5 = tested on: human Eg5; design: method as in PMID 10542155, PMID 10973989; settings: cited from earlier work
# Xenopus Eg5 = tested on: Xenopus Eg5; design: method as in PMID 10542155, PMID 10973989; settings: cited from earlier work
smiles,measurement,setting,value
CCOC(=O)C1=C(C)NC(=S)NC1c1cccc(O)c1 (stereo not shown) [Monastrol],"Inhibition of microtubule-stimulated ATP hydrolysis by Klp-61F motor domain, in words",Klp61F-364H,weakly inhibited
same,IC50,hEg5-367H (R119L),17 ± 2 µM
same,IC50,hEg5-367H (Y211M),0.8 ± 0.3 µM
same,Effect on mitosis in D. rerio cells,AB9 cells,mitotic arrest
same,Effect on spindles in Drosophila cells,KC167 cells,"normal, bipolar spindles"
same,Inhibition of human Eg5,human Eg5,inhibit
same,Inhibition of Xenopus Eg5,Xenopus Eg5,inhibit
